Results on five molecules are retold here after US20090197842A1, “Therapeutic Agent for Neuropathic Pain” (JAPAN SCIENCE AND TECHNOLOGY CORPORATION, priority 2005, published 2009).

For assay [1], the system named is pain hypersensitivity model rats. As to the kind of experiment: Mechanical stimulation test (Dynamic Plantar Aesthesiometer), pain threshold of left plantar. Conditions: for maximum pain threshold after the administration: max pressure 15.0 g, measured 30, 60, 90 min after administration; for effect of administration on pain threshold (in words): intraperitoneal, versus 0.5 w/v % CMC-Na control, Dunnett's test. The format is in vivo. The method, then:
(§1) As experimental animals, pain hypersensitivity model rats obtained by conducting complete ligation on L5/L6 spinal nerves of 6-week-old male rats were used.
(§2) Mechanical stimulation tests were carried out using Dynamic Plantar Aesthesiometer (37400, Ugo Basile), and thermal stimulation tests were carried out using a plantar thermal stimulation tester (Plantar Test 7370, Ugo Basile). The pain threshold of the feet of each model animal was measured, and the animals were divided into groups using Preclinical Package Version 5.0 (SAS Institute Japan), such that the pain thresholds are uniform among the groups as measured prior to administration on each day of the experiment.
(§3) The test substance was prepared as follows. The base material was ground with an agate mortar and a pestle, and 0.5 w/v % carboxyrnethylcellulose sodium (CMC-Na) as a medium was gradually added thereto to form a uniform suspension. The concentration of the liquid to be administered was adjusted with a graduated cylinder or a volumetric flask, only before use.
(§4) The purpose of administering the test substance is to ascertain the direct effect on spinal cord. Since the test substance had been confirmed to pass through the brain barrier, a simple intraperitoneal administration was used. The test substance in a volume of 5 ml/kg was intraperitoneally administered using a syringe barrel and a needle.
Groups each including five pain hypersensitivity model male rats (355.8 to 457.9 g) were used. Before administration of ICI182.780, and at 30 minutes, 60 minutes and 90 minutes after administration of ICI182.780, the pain threshold of the left plantar of each rat was measured using a stimulating apparatus which had been set such that the maximum pressure would be 15.0 g and the maximum pressure would be reached in 20 seconds.
Groups each including five pain hypersensitivity model male rats (290.3 to 354.8 g) were used. Before administration of 17β-estradiol, and at 30 minutes, 60 minutes and 90 minutes after administration of 17β-estradiol, the pain threshold of the left plantar of each rat was measured using a stimulating apparatus which had been set such that the maximum pressure would be 15.0 g and the maximum pressure would be reached in 20 seconds.
Groups each including five pain hypersensitivity model male rats (294.8 to 415.4 g) were used. Before administration of 17β-estradiol+ICI128.780, and at 30 minutes, 60 minutes and 90 minutes after administration of 17β-estradiol+ICI182.780, the pain threshold of the left plantar of each rat was measured using a stimulating apparatus which had been set such that the maximum pressure would be 15.0 g and the maximum pressure would be reached in 20 seconds.
Groups each including five pain hypersensitivity model male rats (333.7 to 408.3 g) were used. Before administration of fluocinolone acetonide, and at 30 minutes, 60 minutes and 90 minutes after administration of fluocinolone acetonide, the pain threshold of the left plantar of each rat was measured using a stimulating apparatus which had been set such that the maximum pressure would be 15.0 g and the maximum pressure would be reached in 20 seconds.
Groups each including five pain hypersensitivity model male rats (261.4 to 320.9 g) were used. Before administration of triamcinolone acetonide, and at 30 minutes, 60 minutes and 90 minutes after administration of triamcinolone acetonide, the pain threshold of the left plantar of each rat was measured using a stimulating apparatus which had been set such that the maximum pressure would be 15.0 g and the maximum pressure would be reached in 20 seconds.

Assay [2] shares this test system. As to the kind of experiment: Thermal stimulation test (plantar thermal stimulation tester), pain threshold of left plantar. To be noted: thermal stimulation intensity 35; for maximum pain threshold after the administration: measured 30, 60, 90 min after administration. The format is in vivo. The method, then:
as §1, §2, §3, §4
Groups each including five pain hypersensitivity model male rats (282.0 to 452.4 g) were used. Before administration of 17β-estradiol+ICI128.780, and at 30 minutes, 60 minutes and 90 minutes after administration of 17β-estradiol+ICI182.780, the pain threshold of the left plantar of each rat was measured using a plantar thermal stimulating apparatus set to a thermal stimulation intensity of […].
Groups each including five pain hypersensitivity model male rats (320.0 to 449.6 g) were used. Before administration of fluocinolone acetonide, and at 30 minutes, 60 minutes and 90 minutes after administration of fluocinolone acetonide, the pain threshold of the left plantar of each rat was measured using a plantar thermal stimulating apparatus set to a thermal stimulation intensity of 35.

Assay [3] has as its system neuropathic pain model mice. Conditions: J. Neurosci. 2004, 2005; cited from earlier work.

SMILES strings stand for the structures.

For the molecule `C[C@]12CC[C@@H]3c4ccc(O)cc4CC[C@H]3[C@@H]1CC[C@@H]2O` [17β-estradiol], the “maximum pain threshold after the administration” value (“maximum pain threshold” below) was 8.1 g in assay [1] (0.3 mg/kg intraperitoneal), 9.4 g in assay [1] (3 mg/kg intraperitoneal) and 10.4 g in assay [1] (30 mg/kg intraperitoneal). The “effect of administration on pain threshold (in words)” value (from here on “effect of administration”) in assay [1] is listed as “significantly increased the pain threshold”.
With `CC1(C)O[C@@H]2C[C@H]3[C@@H]4CCC5=CC(=O)C=C[C@]5(C)[C@@]4(F)[C@@H](O)C[C@]3(C)[C@]2(C(=O)CO)O1` [triamcinolone acetonide], the figures for the “maximum pain threshold” value in assay [1] (0.3 mg/kg intraperitoneal), in assay [1] (3 mg/kg intraperitoneal) and in assay [1] (30 mg/kg intraperitoneal) were 6.6 g, 8.1 g and 8.8 g, respectively.
Take `C[C@]12CC[C@@H]3c4ccc(O)cc4C[C@@H](CCCCCCCCC[S+]([O-])CCCC(F)(F)C(F)(F)F)[C@H]3[C@@H]1CC[C@@H]2O` (stereo partly drawn) [ICI182.780, 7α-17β-[9-[(4,4,5,5,5-pentafluoropentyl)sulphinyl]nonyl]estra-1,3,5(10)-trien-3,17-diol]: the “maximum pain threshold” value in assay [1] (0.3 mg/kg intraperitoneal) stood at 6.7 g; in assay [1] (3 mg/kg intraperitoneal) it was 8.7 g; in assay [1] (30 mg/kg intraperitoneal), 10.6 g. The “effect of administration” value in assay [1] is given as “significantly increased the pain threshold”.
Turning to `CC1(C)O[C@@H]2C[C@H]3[C@@H]4C[C@H](F)C5=CC(=O)C=C[C@]5(C)[C@@]4(F)[C@@H](O)C[C@]3(C)[C@]2(C(=O)CO)O1` [fluocinolone acetonide], the “maximum pain threshold” value in assay [1] (0.3 mg/kg intraperitoneal) stood at 7.5 g; in assay [1] (3 mg/kg intraperitoneal) it was 11.3 g; in assay [1] (10 mg/kg intraperitoneal), 11.6 g; in assay [2] (0.3 mg/kg intraperitoneal), 8.0 s; in assay [2] (3 mg/kg intraperitoneal) it was 9.9 s; in assay [2] (10 mg/kg intraperitoneal), 9.9 s. Moreover, the “effect of administration” value is “significantly increased the pain threshold” in assay [1] and “significantly increased the pain threshold” in assay [2] (intraperitoneal, versus 0.5 w/v % CMC-Na control).
With `CC#C[C@]1(O)CC[C@H]2[C@@H]3CCC4=CC(=O)CCC4=C3[C@@H](c3ccc(N(C)C)cc3)C[C@@]21C` [mifepristone], the “analgesic action against neuropathic pain” value in assay [3] is listed as “exhibited an analgesic action against neuropathic pain”.
